Laboratory results from patent US20240287046A1, “COMPOUNDS AND RADIOLIGANDS FOR TARGETING NEUROTENSIN RECEPTOR AND USES THEREOF” (Full-Life Technologies HK Limited, priority 2022, published 2024).
Blank lines part the entries; values can stand above or below the molecule they belong to.

What was measured:
[1] = system: ASPC-1 tumor-bearing mice; assay: Biodistribution of radionuclide labeled complexes in ASPC-1 tumor-bearing mice; assay type: in vivo, BALB/c nude mice
Experimental: (§1) The BALB/c nude mice (Charles River, Beijing) were utilized to establish the xenografted model for biodistribution study. All animal care and experimental procedure were performed by following the animal protocols approved by the ethics committee of China Institute of Radiation Protection.
(§2) Briefly, each mouse was inoculated with approximately 4×10^6 ASPC-1 cells (human pancreatic cancer cell line) or HT-29 cells (human colorectal adenocarcinoma cell line) expressing human NTSR-1 by subcutaneous injection at rear flank. After inoculation, the xenografted tumors were allowed to grow for ˜2-4 weeks till the tumor weight reached to about 0.05 to 0.50 g (0.20 g in average).
(§3) Biodistribution studies were performed by administrating the radionuclide labeled test compound at a dose of ˜30-50 μCi (100 μL in 0.9% NaCl, ˜1.11-1.85 MBq, with specific activity 30-250 μCi/nmol) to each animal through tail vein injection.
(§4) At different time points after the administration, the mice treated with each compound were euthanized. The tissues and organs of the animals in each group were collected, excised, weighed, and analyzed in a PerkinElmer 2480 WIZARD2γ counter, and the percent injected dose (% ID) and % ID/g of each organ or tissue were calculated.

[2] = system: HT-29 tumor-bearing mice; assay: Biodistribution of radionuclide labeled complexes in HT-29 tumor-bearing mice; assay type: in vivo, BALB/c nude mice
Experimental: as §1, §2, §3, §4

tumor uptake relative to blood, liver and lung compared to ^177Lu—C5 ([1]; 1 or 4 hours): significantly higher tumor uptake
uptake ratio Tumor/Blood ([1]; 1 h): 33.3
uptake ratio Tumor/Kidney ([1]; 1 h): 3.42
uptake ratio Tumor/Liver ([1]; 1 h): 25.0
uptake ratio Tumor/Lung ([1]; 1 h): 23.7
uptake ratio Tumor/Blood ([1]; 4 h): 364
uptake ratio Tumor/Kidney ([1]; 4 h): 5.70
uptake ratio Tumor/Liver ([1]; 4 h): 25.9
uptake ratio Tumor/Lung ([1]; 4 h): 79.3
% ID/g (1 h) Blood ([1]; Blood, 1 h): 0.38 ± 0.06 % ID/g
% ID/g (4 h) Blood ([1]; Blood, 4 h): 0.04 ± 0.01 % ID/g
% ID/g (1 h) Femur ([1]; Femur, 1 h): 0.12 ± 0.01 % ID/g
% ID/g (4 h) Femur ([1]; Femur, 4 h): 0.12 ± 0.09 % ID/g
% ID/g (1 h) Heart ([1]; Heart, 1 h): 0.22 ± 0.12 % ID/g
% ID/g (4 h) Heart ([1]; Heart, 4 h): 0.12 ± 0.03 % ID/g
% ID/g (1 h) Intestine ([1]; Intestine, 1 h): 0.77 ± 0.31 % ID/g
% ID/g (4 h) Intestine ([1]; Intestine, 4 h): 0.22 ± 0.06 % ID/g
% ID/g (1 h) Kidney ([1]; Kidney, 1 h): 3.71 ± 0.24 % ID/g
% ID/g (4 h) Kidney ([1]; Kidney, 4 h): 2.39 ± 0.37 % ID/g
% ID/g (1 h) Liver ([1]; Liver, 1 h): 0.51 ± 0.22 % ID/g
% ID/g (4 h) Liver ([1]; Liver, 4 h): 0.53 ± 0.16 % ID/g
% ID/g (1 h) Lung ([1]; Lung, 1 h): 0.54 ± 0.04 % ID/g
% ID/g (4 h) Lung ([1]; Lung, 4 h): 0.17 ± 0.08 % ID/g
% ID/g (1 h) Muscle ([1]; Muscle, 1 h): 0.06 ± 0 % ID/g
% ID/g (4 h) Muscle ([1]; Muscle, 4 h): 0.08 ± 0.02 % ID/g
% ID/g (1 h) Pancreas ([1]; Pancreas, 1 h): 0.11 ± 0.03 % ID/g
% ID/g (4 h) Pancreas ([1]; Pancreas, 4 h): 0.06 ± 0.02 % ID/g
% ID/g (1 h) Spleen ([1]; Spleen, 1 h): 0.09 ± 0.01 % ID/g
% ID/g (4 h) Spleen ([1]; Spleen, 4 h): 0.13 ± 0.03 % ID/g
% ID/g (1 h) Stomach ([1]; Stomach, 1 h): 0.27 ± 0.19 % ID/g
% ID/g (4 h) Stomach ([1]; Stomach, 4 h): 0.21 ± 0.05 % ID/g
% ID/g (1 h) Tumor ([1]; Tumor, 1 h): 12.71 ± 4.57 % ID/g
% ID/g (4 h) Tumor ([1]; Tumor, 4 h): 13.64 ± 2.5 % ID/g
% ID/g (1 h) Blood ([2]; Blood, 1 h): 3.2 ± 1.07 % ID/g
% ID/g (4 h) Blood ([2]; Blood, 4 h): 0.08 ± 0.03 % ID/g
% ID/g (1 h) Femur ([2]; Femur, 1 h): 0.68 ± 0.18 % ID/g
% ID/g (4 h) Femur ([2]; Femur, 4 h): 0.2 ± 0.03 % ID/g
% ID/g (1 h) Heart ([2]; Heart, 1 h): 1.17 ± 0.24 % ID/g
% ID/g (4 h) Heart ([2]; Heart, 4 h): 0.12 ± 0.03 % ID/g
% ID/g (1 h) Intestine ([2]; Intestine, 1 h): 1.21 ± 0.06 % ID/g
% ID/g (4 h) Intestine ([2]; Intestine, 4 h): 0.27 ± 0.07 % ID/g
% ID/g (1 h) Kidney ([2]; Kidney, 1 h): 5.9 ± 4.85 % ID/g
% ID/g (4 h) Kidney ([2]; Kidney, 4 h): 5.14 ± 2.21 % ID/g
% ID/g (1 h) Liver ([2]; Liver, 1 h): 1.28 ± 0.47 % ID/g
% ID/g (4 h) Liver ([2]; Liver, 4 h): 0.83 ± 0.27 % ID/g
% ID/g (1 h) Lung ([2]; Lung, 1 h): 1.66 ± 1.17 % ID/g
% ID/g (4 h) Lung ([2]; Lung, 4 h): 0.27 ± 0.04 % ID/g
% ID/g (1 h) Muscle ([2]; Muscle, 1 h): 0.57 ± 0.15 % ID/g
% ID/g (4 h) Muscle ([2]; Muscle, 4 h): 0.09 ± 0.04 % ID/g
% ID/g (1 h) Pancreas ([2]; Pancreas, 1 h): 0.62 ± 0.25 % ID/g
% ID/g (4 h) Pancreas ([2]; Pancreas, 4 h): 0.14 ± 0.02 % ID/g
% ID/g (1 h) Spleen ([2]; Spleen, 1 h): 0.45 ± 0.19 % ID/g
% ID/g (4 h) Spleen ([2]; Spleen, 4 h): 0.26 ± 0.1 % ID/g
% ID/g (1 h) Stomach ([2]; Stomach, 1 h): 0.69 ± 0.23 % ID/g
% ID/g (4 h) Stomach ([2]; Stomach, 4 h): 0.32 ± 0.2 % ID/g
% ID/g (1 h) Tumor ([2]; Tumor, 1 h): 10.31 ± 4.72 % ID/g
% ID/g (4 h) Tumor ([2]; Tumor, 4 h): 7.53 ± 3.52 % ID/g
Compound: COc1cccc(OC)c1-c1cc(C(=O)NC2(C(=O)O)C3CC4CC(C3)CC2C4)nn1-c1ccc(N(CCCN(C)C)C(=O)COCCOCCNC(=O)CN2CCN(CC(=O)[O-])CCN(CC(=O)[O-])CCN(CC(=O)[O-])CC2)cc1C(C)C.[177Lu+3] (centres unmarked) [^177Lu-I-6]

tumor AUC over 72 hours compared to ^177Lu—C2 [1]: significantly higher tumor AUC
% ID/g (4 h) Blood ([1]; Blood, 4 h): 2.08 ± 0.14 % ID/g
% ID/g (24 h) Blood ([1]; Blood, 24 h): 0.06 ± 0.02 % ID/g
% ID/g (72 h) Blood ([1]; Blood, 72 h): 0.04 ± 0.01 % ID/g
% ID/g (4 h) Femur ([1]; Femur, 4 h): 0.72 ± 0.05 % ID/g
% ID/g (24 h) Femur ([1]; Femur, 24 h): 0.19 ± 0.09 % ID/g
% ID/g (72 h) Femur ([1]; Femur, 72 h): 0.15 ± 0.06 % ID/g
% ID/g (4 h) Heart ([1]; Heart, 4 h): 0.68 ± 0.5 % ID/g
% ID/g (24 h) Heart ([1]; Heart, 24 h): 0.24 ± 0.1 % ID/g
% ID/g (72 h) Heart ([1]; Heart, 72 h): 0.18 ± 0.03 % ID/g
% ID/g (4 h) Intestine ([1]; Intestine, 4 h): 0.98 ± 0.2 % ID/g
% ID/g (24 h) Intestine ([1]; Intestine, 24 h): 0.37 ± 0.07 % ID/g
% ID/g (72 h) Intestine ([1]; Intestine, 72 h): 0.51 ± 0.1 % ID/g
% ID/g (4 h) Kidney ([1]; Kidney, 4 h): 3.66 ± 2.51 % ID/g
% ID/g (24 h) Kidney ([1]; Kidney, 24 h): 3.16 ± 1.81 % ID/g
% ID/g (72 h) Kidney ([1]; Kidney, 72 h): 1.3 ± 0.61 % ID/g
% ID/g (4 h) Liver ([1]; Liver, 4 h): 1.81 ± 0.43 % ID/g
% ID/g (24 h) Liver ([1]; Liver, 24 h): 0.97 ± 0.45 % ID/g
% ID/g (72 h) Liver ([1]; Liver, 72 h): 1.06 ± 0.46 % ID/g
% ID/g (4 h) Lung ([1]; Lung, 4 h): 0.64 ± 0.1 % ID/g
% ID/g (24 h) Lung ([1]; Lung, 24 h): 0.31 ± 10.1 % ID/g
% ID/g (72 h) Lung ([1]; Lung, 72 h): 0.33 ± 0.28 % ID/g
% ID/g (4 h) Muscle ([1]; Muscle, 4 h): 0.47 ± 0.25 % ID/g
% ID/g (24 h) Muscle ([1]; Muscle, 24 h): 0.13 ± 0.05 % ID/g
% ID/g (72 h) Muscle ([1]; Muscle, 72 h): 0.06 ± 0.01 % ID/g
% ID/g (4 h) Pancreas ([1]; Pancreas, 4 h): 0.41 ± 0.28 % ID/g
% ID/g (24 h) Pancreas ([1]; Pancreas, 24 h): 0.18 ± 0.09 % ID/g
% ID/g (72 h) Pancreas ([1]; Pancreas, 72 h): 0.07 ± 0.04 % ID/g
% ID/g (4 h) Spleen ([1]; Spleen, 4 h): 0.42 ± 0.16 % ID/g
% ID/g (24 h) Spleen ([1]; Spleen, 24 h): 0.53 ± 0.25 % ID/g
% ID/g (72 h) Spleen ([1]; Spleen, 72 h): 0.24 ± 0.08 % ID/g
% ID/g (4 h) Stomach ([1]; Stomach, 4 h): 0.57 ± 0.16 % ID/g
% ID/g (24 h) Stomach ([1]; Stomach, 24 h): 0.28 ± 0.17 % ID/g
% ID/g (72 h) Stomach ([1]; Stomach, 72 h): 0.1 ± 0.02 % ID/g
% ID/g (4 h) Tumor ([1]; Tumor, 4 h): 6.93 ± 0.71 % ID/g
% ID/g (24 h) Tumor ([1]; Tumor, 24 h): 22.56 ± 1.81 % ID/g
% ID/g (72 h) Tumor ([1]; Tumor, 72 h): 7.23 ± 4.46 % ID/g
ratio of tumor AUC verse normal organ AUC ([1]; compared to ^177Lu—C2): significantly improved
Compound: COc1cccc(OC)c1-c1cc(C(=O)NC2(C(=O)O)C3CC4CC(C3)CC2C4)nn1-c1ccc(N(C)CCCN(C)CCCN(C)C(=O)CN2CCN(CC(=O)[O-])CCN(CC(=O)[O-])CCN(CC(=O)[O-])CC2)cc1C(C)C.[177Lu+3] (centres unmarked) [^177Lu-I-1]
